According to patent US7947703B2, “Phenanthridinium derivatives as DNA binding agents” (University Court of the University of Glasgow, priority 2003, dated 2011):
Marks after values point to notes of the source that are not given here.

Key:
[1] = test system: Calf DNA; experiment: DNA affinity by Isothermal Titration Calorimetry (ITC), Calf DNA; format: binding
Experimental: (§1) DIP cytotoxicity was determined by a tetrazolium dye-based microtitration assay. DNA affinity measurements of DIPs were undertaken using Isothermal Titration Calorimetry (ITC).

[2] = test system: Cisplatin resistant cell line A2780/cp70; experiment: growth (tetrazolium dye-based microtitration) cytotoxicity assay, A2780/cp70; format: cell-based, human
Experimental: (§2) Compounds were tested in a growth assay with a 24 hours drug exposure and a 3 day recovery period. Cell lines used were human ovarian tumour cell line A2780 and 2 Cisplatin resistant derivatives cell lines A27080/cp70 and MCP1. IC50 is the concentration of drug required to reduce the surviving cell number to 50% of that of the control untreated cells. Results are from one experiment and are the mean±SEM of the triplicate plates.
as §1

[3] = test system: Salmon DNA; experiment: DNA affinity by Isothermal Titration Calorimetry (ITC), Salmon DNA; format: binding
Experimental: as §1

[4] = test system: DNA; experiment: Viscosimetry analysis (DNA intercalation); conditions: preliminary result
[5] = test system: Cisplatin resistant cell line MCP1; experiment: growth (tetrazolium dye-based microtitration) cytotoxicity assay, MCP1; format: cell-based, human
Experimental: as §2, §1

[6] = test system: human ovarian tumour cell line A2780; experiment: growth (tetrazolium dye-based microtitration) cytotoxicity assay, A2780; format: cell-based
Experimental: as §2, §1

Compound: c1ccc2c(c1)c1[n+](c3ccccc23)CCN1 [AP5-94, 2,3-Dihydro-1H-imidazo[1,2-f]phenanthridin-4-ylium bromide]
- Ka Calf DNA [1]: 2.06 ± 907 M^−1 (10^4)
- less active on A2780/cp70 than on A2780 [2]: 50%
- IC50 ([2]; Homo sapiens, A2780/CP70, cisplatin-resistant line, 24 hours drug exposure, 3 day recovery, mean±SEM of triplicate plates): 2300 ± 150 nM
- RF1 ([2]; rapport of the IC50 between A2780 and A2780/cp70, the lower RF the better): 1.5
- Ka Salmon DNA [3]: 2.56 ± 802.6 M^−1 (10^4)
- viscosity of DNA (in words) [4]: increase of viscosity similar to the one obtained with the DNA intercalator reference ethidium bromide
- more active on MCP1 than A2780 [5]: 50%
- IC50 ([5]; Homo sapiens, cisplatin-resistant line, 24 hours drug exposure, 3 day recovery, mean±SEM of triplicate plates): 820 ± 90 nM
- RF2 ([5]; rapport of the IC50 between A2780 and MCP1, the lower RF the better): 0.5
- cytotoxicity on cisplatin-sensitive cell line A2780 (in words) [6]: high cytotoxicity
- IC50 ([6]; Homo sapiens, A2780, cisplatin-sensitive line, 24 hours drug exposure, 3 day recovery, mean±SEM of triplicate plates): 1560 ± 180 nM
